Test: mn = molality of the nth substance listed, in mol/kg
Settings: 101 kPa, Liquid; for mass density: Vibrating tube method; for speed of sound: Pulse-echo method

O=S(=O)([O-])C(F)(F)F.O=S(=O)([O-])C(F)(F)F.O=S(=O)([O-])C(F)(F)F.[Lu+3] [lutetium(III) trifluoromethanesulfonate] + CN(C)C=O
Settings | mass density, 283.15 K [kg/m3] | mass density, 293.15 K [kg/m3] | mass density, 298.15 K [kg/m3] | mass density, 303.15 K [kg/m3] | mass density, 313.15 K [kg/m3] | mass density, 323.15 K [kg/m3] | mass density, 333.15 K [kg/m3] | speed of sound, 298.15 K [m/s]
m1 = 0.02151 | 967.66 | 958.14 | 953.37 | 948.59 | 939.01 | 929.39 | 919.7 | 1455.4
m1 = 0.02883 | 970.96 | 961.44 | 956.67 | 951.89 | 942.3 | 932.66 | 922.98 | 1454.7
m1 = 0.03776 | 975 | 965.46 | 960.69 | 955.91 | 946.32 | 936.69 | 927 | 1454
m1 = 0.04886 | 980.05 | 970.51 | 965.73 | 960.95 | 951.35 | 941.71 | 932.02 | 1452.9
m1 = 0.0599 | 985.11 | 975.57 | 970.79 | 966.01 | 956.39 | 946.76 | 937.05 | 1451.8
m1 = 0.07513 | 992.17 | 982.63 | 977.84 | 973.05 | 963.43 | 953.77 | 944.07 | 1450.5
m1 = 0.09644 | 1002.19 | 992.62 | 987.83 | 983.03 | 973.4 | 963.72 | 954 | 1448
m1 = 0.1156 | 1011.35 | 1001.77 | 996.97 | 992.16 | 982.52 | 972.84 | 963.09 | 1445.9
m1 = 0.1337 | 1020.13 | 1010.53 | 1005.72 | 1000.91 | 991.25 | 981.57 | 971.83 | 1444.2
m1 = 0.1557 | 1031 | 1021.38 | 1016.56 | 1011.75 | 1002.08 | 992.37 | 982.6 | 1441.8
m1 = 0.1744 | 1040.3 | 1030.66 | 1025.84 | 1021.02 | 1011.33 | 1001.62 | 991.84 | 1439.7

O=S(=O)([O-])C(F)(F)F.O=S(=O)([O-])C(F)(F)F.O=S(=O)([O-])C(F)(F)F.[Gd+3] [gadolinium (III) trifluoromethanesulfonate] + CN(C)C=O
Settings | mass density, 283.15 K [kg/m3] | mass density, 293.15 K [kg/m3] | mass density, 298.15 K [kg/m3] | mass density, 303.15 K [kg/m3] | mass density, 313.15 K [kg/m3] | mass density, 323.15 K [kg/m3] | mass density, 333.15 K [kg/m3] | speed of sound, 298.15 K [m/s]
m1 = 0.01967 | 966.39 | 956.87 | 952.11 | 947.35 | 937.76 | 928.14 | 918.46 | 1455.8
m1 = 0.02703 | 969.53 | 960.01 | 955.25 | 950.48 | 940.9 | 931.28 | 921.61 | 1455.2
m1 = 0.03489 | 972.9 | 963.38 | 958.61 | 953.84 | 944.26 | 934.64 | 924.97 | 1454.5
m1 = 0.04531 | 977.36 | 967.83 | 963.07 | 958.3 | 948.72 | 939.1 | 929.43 | 1453.6
m1 = 0.05527 | 981.65 | 972.13 | 967.36 | 962.59 | 953.01 | 943.4 | 933.75 | 1452.8
m1 = 0.07019 | 988.17 | 978.65 | 973.89 | 969.1 | 959.52 | 949.91 | 940.24 | 1451.5
m1 = 0.09028 | 997.06 | 987.52 | 982.77 | 977.97 | 968.39 | 958.77 | 949.11 | 1449.4
m1 = 0.108 | 1004.97 | 995.43 | 990.66 | 985.88 | 976.29 | 966.68 | 957.02 | 1448
m1 = 0.1249 | 1012.67 | 1003.13 | 998.36 | 993.58 | 983.99 | 974.37 | 964.71 | 1446.3
m1 = 0.146 | 1022.39 | 1012.83 | 1008.05 | 1003.28 | 993.69 | 984.07 | 974.42 | 1443.5
m1 = 0.1634 | 1030.52 | 1020.96 | 1016.18 | 1011.39 | 1001.8 | 992.19 | 982.54 | 1441.7
